Results from patent US8835644B2, “Broad spectrum benzothiophene-nitrothiazolide and other antimicrobials” (University of Virginia Patent Foundation, priority 2009, dated 2014).
Converted amounts (≈) assume the structure as drawn. “And” between values parts separate entries of the source, which are not always exact repeats. Equal values may be shown once. Read-outs that look alike come from different tables or passages of the source.

Key:
[1] = tested on: S. aureus and S. epidermidis strains; assay: MIC by microdilution in TSB, staphylococcal strains; format: cell-based, Staphylococcus epidermidis; conditions: Staphylococcus aureus; staphylococcal strains incl. MRSA S. aureus, microdilution in TSB; read-out: MIC
Procedure: Minimal inhibitory concentration testing of NTZ was done in sterile round bottom 96 well microtiter polystyrene plates (Corning Inc., Corning, N.Y.) by microdilution. Tizoxanide TIZ (deacetylated form of NTZ), denitro-NTZ (TIZ without 5-nitro group) and amoxanide AMIX (TIZ-ethylamine) were also tested. Bacteria were grown overnight and suspended in fresh TSB to an OD600 of 0.01 and 100 μl were dispensed into wells with the first well containing 200 μA NTZ and other antibiotics (DMSO control) were added to well one and serially diluted from 32 μg/ml. All compounds were tested in triplicate and plates were read visually or with a plate reader (Molecular Devices) at 8, 12 and at 24 h. MIC was determined as the first well in which no visible bacterial growth was noted relative to controls. Drug effects on aerobic growth were determined in 125 ml flasks containing 25 ml of TSB medium and following inoculation (detailed above), flasks were on a gyrorotary shaker (200 rpm) at 37° C. Final concentrations of NTZ were 0, 10 and 25 μg/ml and samples were removed at hourly intervals and absorbance determined at 600 nm.

[2] = tested on: S. epidermidis; assay: MIC testing by broth dilution, S. epidermidis plank; format: cell-based, Staphylococcus epidermidis
In short: (§1)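 Twofold broth microdilution from 32 μg/ml down to 0.06, in LB for E. coli, Trypticase Soy for S. epidermidis (planktonic) and Brain Heart Infusion for C. jejuni. C. difficile: anaerobic disk diffusion on Wilkins Chalgrin agar, inhibition zone expressed as a ratio to the NTZ zone.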

[3] = tested on: E. coli; assay: MIC testing by broth dilution, E. coli plank; format: cell-based, Escherichia coli
In short: as §1

[4] = tested on: S. epidermidis strain 9142; assay: Biofilm determination, crystal violet, S. epidermidis; format: cell-based, Staphylococcus epidermidis
Procedure: Staphylococcal strains were cultured overnight in TSB at 37° C. with shaking, diluted in fresh medium to an OD600 of 0.01 and 200 W was dispensed into sterile flat bottom polystyrene 96 well microtiter plates (Costar 3596, Corning Inc.). […] Each compound and dilution was tested in triplicate. The plates were incubated overnight at 37° C. in a humidified incubator, without shaking and both growth and biofilm accumulation were determined at 16 h.
Following recording of turbidities, the culture medium was aspirated and the wells were washed three times with distilled water, blotted on paper towels, and fixed with 75% ethanol for 10 minutes.
To visualize biofilm material, 0.5% crystal violet was added to each well and after 5 minutes was removed and the wells washed three times with distilled water. Plates were read using a microplate reader at a wavelength of 570 nm. The dye was then extracted by adding 200 W of 95% ethanol, and the absorbance was read again at 570 nm. All assays were performed in triplicate and the mean and standard deviation determined. Generally, the ethanol-solubilized crystal violet was more reliable and these determinations are reported throughout.

[5] = Zn2+ chelation, spectrophotometric and 1H NMR; format: physicochemical; conditions: 1H NMR in DMSO-d6, ratios 1:1, 1:2, 2:1, up to 72 h
Procedure: To test direct binding of Zn^2+ by NTZ in solution, we tested a range of concentrations of both NTZ and TIZ and scanned the solutions spectrophotometrically using an OLIS Cary-14 (OLIS Instruments Co., Bogart Ga.). Absolute spectra were recorded over a UV/Vis range from 220 nm to 700 nm. Spectral shifts in the 418 nm range would be attributable to changes in resonance within the thiazole ring that would result if Zn^2+ were coordinated by NTZ (9).
Chelation experiments were also performed utilizing NTZ and TIZ in DMSO-d6 (0.5 mL) with ZnCl2 using a 300 MHz Varian MercuryPlus spectrometer. Specifically, three ratios of NTZ to Zn^2+ were investigated (1:1, 1:2, 2:1) where NTZ was held constant (4 mg, 13 μmoles) while varying ZnCl2 (1.8 mg, 13 μmoles or 3.5 mg, 26 μmoles) or NTZ (8 mg, 26 μmoles) with ZnCl2 (1.8 mg, 13 μmoles). Three ratios of TIZ to Zn^2+ were also investigated (1:1, 1:2, 2:1) where TIZ was held constant (4 mg, 15 μmoles) while varying ZnCl2 (2.1 mg, 15 μmoles or 4.1 mg, 30 μmoles) or TIZ (8 mg, 30 μmoles) with ZnCl2 (2.1 mg, 15 μmoles). ^1H NMR spectra were then obtained after mixing for 5 min, 24 h, 48 h, and 72 h at room temperature. Any chelation event would be evidenced by shifting or broadening of the thiazole and benzene protons as well as loss of the amide proton.

[6] = tested on: EAEC JM221 (AAF/I fimbriae); assay: Hemagglutination of sheep erythrocytes, EAEC JM221; format: cell-based, Escherichia coli; conditions: EAEC JM221 grown in MinA-G with 20 μg/ml NTZ; also: key: +++ = strong hemagglutination reaction; + weak; − no hemagglutination
Procedure: HA assays were performed in 96-well microplates as described in (1). Bacteria grown over night without shaking ([…]) were suspended in PBS and diluted to OD660 of […] was mixed with an equal volume of 3% (vol/vol) sheep erythrocyte suspension containing 1% mannose, except when type I fimbriae producing strains were assayed. In the latter, bacteria were grown statically in LB medium (with and without NTZ) for 48 h and HA was determined with guinea pig erythrocytes. HA reactions were incubated at 4° C. for […] HA was determined visually against controls receiving no NTZ. All assays were prepared in triplicate and repeated twice.

CC(=O)Oc1ccccc1C(=O)Nc1ncc([N+](=O)[O-])s1 [Nitazoxanide, 2-(acetyloxy)-N-(5-nitro-2-thiazolyl)benzamide, reference compound]
MIC [1]: 8 to 16 µg/mL (≈ 26 to 52.1 µM)
MIC ([2]; Staphylococcus epidermidis, broth dilution, Trypticase Soy, 24 h, read-out: MIC (μM) S. epidermidis Plank): 52.1 µM (≈ 16 µg/mL)
MIC ([2]; planktonic, 2-amino-3,5-dinitrothiophene analogues table, read-out: MIC S. epidermidis Plank): 52.1 µM (≈ 16 µg/mL)
MIC ([2]; planktonic, Thiophene analogues table, read-out: MIC S. epidermidis Plank): 52.1 µM (≈ 16 µg/mL)
MIC ([3]; Escherichia coli, broth dilution, LB medium, 24 h, read-out: MIC (μM) E. coli Plank): 104 µM (≈ 32 µg/mL)
MIC ([3]; Escherichia coli, planktonic, Furan analogues table, read-out: MIC E. coli Plank): 104 µM (≈ 32 µg/mL)
MIC ([3]; planktonic, 2-amino-3,5-dinitrothiophene analogues table, read-out: MIC E. coli Plank): 104.1 µM (≈ 32 µg/mL)
MIC ([3]; planktonic, Thiophene analogues table, read-out: MIC E. coli Plank): 104.1 µM (≈ 32 µg/mL)
IC50 biofilm production ([4]; S. epidermidis strain 9142, crystal violet, listed as NTZ): 4 µg/mL (≈ 13 µM)
IC50 ([4]; Staphylococcus epidermidis, 9142, S. epidermidis strain 9142, crystal violet, read-out: IC50 biofilm production): 2.5 µg/mL and ~8 µM
IC50 ([4]; Staphylococcus epidermidis, 9142, clinical S. epidermidis isolates and strain 5179-R1, read-out: IC50 biofilm formation, all strains tested): 2.5 to 5 µg/mL (≈ 8.14 to 16.3 µM)
Biofilm accumulation on the bottom of flasks ([4]; static (microaerobic) growth, 15 μg/ml): completely ablated
Chelation with ZnCl2 [5]: No chelation
HA (sheep erythrocytes), bacterial OD660 0.5 [6]: −
HA (sheep erythrocytes), bacterial OD660 1.0 [6]: −
